Assay results published in ChEMBL document CHEMBL4680217, “Discovery of PROTAC BCL-X degraders as potent anticancer agents with low on-target platelet toxicity” (Eur J Med Chem, 2020).
The source made the active and inactive calls. The rule behind the calls is not given here.

How the values were obtained:
[1] = target: T1, Protein cereblon/Bcl-2-like protein 1 (Homo sapiens, UniProt Q07817+Q96SW2); assay: Protac activity at CRBN/BCL-XL in human MOLT-4 cells assessed as induction of BCL-XL degradation measured after 16 hrs by immunoblotting analysis; assay type: cell-based
MOLT-4 [2] = assay: Antiproliferative activity against human MOLT-4 cells assessed as reduction in cell viability measured after 48 hrs by MTS assay; assay type: functional, cell-based; conditions: MOLT-4, 48 h
[3] = target: T1, Protein cereblon/Bcl-2-like protein 1; assay: Protac activity at CRBN/BCL-XL in human MOLT-4 cells assessed as induction of BCL-XL degradation by measuring remaining BCL-XL level at 50 nM measured after 16 hrs by immunoblotting analysis relative to control; assay type: cell-based
[4] = target: Protein cereblon/Apoptosis regulator Bcl-2 (Homo sapiens) (UniProt P10415+Q96SW2); assay: Protac activity at CRBN/BCL2 in human MOLT-4 cells assessed as induction of BCL2 degradation at 50 nM measured after 16 hrs by immunoblotting analysis; assay type: cell-based
MOLT-4 [5] = assay: Potency index, ratio of ABT-263 IC50 to test compound IC50 for antiproliferative activity against human MOLT-4 cells assessed as reduction in cell viability measured after 48 hrs by MTS assay; assay type: functional
RS4-11 = assay: Antiproliferative activity against human RS4-11 cells assessed as reduction in cell viability measured after 48 hrs by MTS assay; assay type: functional, cell-based; conditions: RS4-11, 48 h
NCI-H146 = assay: Antiproliferative activity against human NCI-H146 cells assessed as reduction in cell viability measured after 48 hrs by MTS assay; assay type: functional, cell-based; conditions: NCI-H146, 48 h
[6] = Toxicity in human platelet assessed as reduction in cell viability measured after 48 hrs by MTS assay; assay type: tissue-based; conditions: human platelets
[7] = Selectivity index, ratio of IC50 for human platelet to IC50 for human MOLT-4 cells
[8] = target: T1, Protein cereblon/Bcl-2-like protein 1; assay: Protac activity at CRBN/BCL-XL in human MOLT-4 cells assessed as induction of BCL-XL degradation at 100 nM measured within 2 hrs by immunoblotting analysis; assay type: cell-based
[9] = target: T1, Protein cereblon/Bcl-2-like protein 1; assay: Protac activity at CRBN/BCL-XL in human MOLT-4 cells assessed as induction of BCL-XL degradation at 100 nM measured after 8 hrs by immunoblotting analysis relative to control; assay type: cell-based
[10] = target: T1, Protein cereblon/Bcl-2-like protein 1; assay: Protac activity at CRBN/BCL-XL in human MOLT-4 cells assessed as induction of BCL-XL degradation at 100 nM preincubated for 16 hrs followed by compound washout by immunoblotting analysis; assay type: cell-based
[11] = target: T1, Protein cereblon/Bcl-2-like protein 1; assay: Protac activity at CRBN/BCL-XL in human MOLT-4 cells assessed as induction of BCL-XL degradation at 10 to 100 nM measured after 16 hrs in presence of competitive CRBN ligand pomalidomide by immunoblotting analysis; assay type: cell-based; conditions: dose 10-100 nM
[12] = target: T1, Protein cereblon/Bcl-2-like protein 1; assay: Protac activity at CRBN/BCL-XL in human MOLT-4 cells assessed as induction of BCL-XL degradation at 3.7 to 300 nM measured after 16 hrs in presence of proteasome inhibitor MG-132 by immunoblotting analysis; assay type: cell-based; conditions: dose 3.7-300 nM
[13] = target: T1, Protein cereblon/Bcl-2-like protein 1; assay: Protac activity at CRBN/BCL-XL in human platelet assessed as induction of BCL-XL degradation up to 1 uM measured after 16 hrs by immunoblotting analysis; conditions: dose microM <=1, time 16.0 hrs
[14] = Ratio of IC50 for human MOLT-4 cells in presence of pomalidomide to IC50 for human MOLT-4 cells; assay type: functional
MOLT-4 [15] = assay: Induction of apoptosis in human MOLT-4 cells assessed as increase in cleaved PARP expression measured after 16 hrs by immunoblotting analysis; assay type: functional, cell-based
MOLT-4 [16] = assay: Induction of apoptosis in human MOLT-4 cells assessed as increase in cleaved caspase-3 expression measured after 16 hrs by immunoblotting analysis; assay type: functional, cell-based
MOLT-4 [17] = assay: Induction of apoptosis in human MOLT-4 cells assessed as viable cells at 10 nM measured after 48 hrs by Alexa Fluor 647-Annexin V/propidium iodide staining based flow cytometry (reference value: 97.1 to 97.3%); assay type: functional; conditions: read-out: Activity
MOLT-4 [18] = assay: Induction of apoptosis in human MOLT-4 cells assessed as early apoptotic cells at 10 nM measured after 48 hrs by Alexa Fluor 647-Annexin V/propidium iodide staining based flow cytometry (reference value: 1.5 to 1.7%); assay type: functional
MOLT-4 [19] = assay: Induction of apoptosis in human MOLT-4 cells assessed as late apoptotic cells at 10 nM measured after 48 hrs by Alexa Fluor 647-Annexin V/propidium iodide staining based flow cytometry (reference value: 1.1 to 1.4%); assay type: functional
MOLT-4 [20] = assay: Induction of apoptosis in human MOLT-4 cells assessed as necrotic cells at 10 nM measured after 48 hrs by Alexa Fluor 647-Annexin V/propidium iodide staining based flow cytometry (reference value: 0.3 to 0.4%); assay type: functional
MOLT-4 [21] = assay: Induction of apoptosis in human MOLT-4 cells assessed as viable cells at 100 nM measured after 48 hrs by Alexa Fluor 647-Annexin V/propidium iodide staining based flow cytometry (reference value: 97.1 to 97.3%); assay type: functional; conditions: read-out: Activity
MOLT-4 [22] = assay: Induction of apoptosis in human MOLT-4 cells assessed as early apoptotic cells at 100 nM measured after 48 hrs by Alexa Fluor 647-Annexin V/propidium iodide staining based flow cytometry (reference value: 1.5 to 1.7%); assay type: functional
MOLT-4 [23] = assay: Induction of apoptosis in human MOLT-4 cells assessed as late apoptotic cells at 100 nM measured after 48 hrs by Alexa Fluor 647-Annexin V/propidium iodide staining based flow cytometry (reference value: 1.1 to 1.4%); assay type: functional
MOLT-4 [24] = assay: Induction of apoptosis in human MOLT-4 cells assessed as necrotic cells at 100 nM measured after 48 hrs by Alexa Fluor 647-Annexin V/propidium iodide staining based flow cytometry (reference value: 0.3 to 0.4%); assay type: functional
MOLT-4 [25] = assay: Induction of apoptosis in human MOLT-4 cells assessed as viable cells at 100 nM measured after 48 hrs in presence of pan-caspase inhibitor QVD by Alexa Fluor 647-Annexin V/propidium iodide staining based flow cytometry (reference value: 97.1 to 97.3%); assay type: functional; conditions: read-out: Activity
MOLT-4 [26] = assay: Induction of apoptosis in human MOLT-4 cells assessed as early apoptotic cells at 100 nM measured after 48 hrs in presence of pan-caspase inhibitor QVD by Alexa Fluor 647-Annexin V/propidium iodide staining based flow cytometry (reference value: 1.5 to 1.7%); assay type: functional
MOLT-4 [27] = assay: Induction of apoptosis in human MOLT-4 cells assessed as late apoptotic cells at 100 nM measured after 48 hrs in presence of pan-caspase inhibitor QVD by Alexa Fluor 647-Annexin V/propidium iodide staining based flow cytometry (reference value: 1.1 to 1.4%); assay type: functional
MOLT-4 [28] = assay: Induction of apoptosis in human MOLT-4 cells assessed as necrotic cells at 100 nM measured after 48 hrs in presence of pan-caspase inhibitor QVD by Alexa Fluor 647-Annexin V/propidium iodide staining based flow cytometry (reference value: 0.3 to 0.4%); assay type: functional
[29] = target: T2, Cereblon/Ikaros (Homo sapiens) (UniProt Q96SW2+Q13422); assay: Protac activity at CRBN/IKZF1 in human MOLT-4 cells assessed as induction of IKZF1 degradation at 10 nM measured after 16 hrs by immunoblotting analysis; assay type: cell-based
[30] = target: T3, Protein cereblon/Zinc finger protein Aiolos (Homo sapiens) (UniProt Q96SW2+Q9UKT9); assay: Protac activity at CRBN/IKZF3 in human MOLT-4 cells assessed as induction of IKZF3 degradation at 10 nM measured after 16 hrs by immunoblotting analysis; assay type: cell-based
[31] = target: T2, Cereblon/Ikaros (Homo sapiens); assay: Protac activity at CRBN/IKZF1 in human MOLT-4 cells assessed as induction of IKZF1 degradation at 100 nM measured after 16 hrs by immunoblotting analysis; assay type: cell-based
[32] = target: T3, Protein cereblon/Zinc finger protein Aiolos (Homo sapiens); assay: Protac activity at CRBN/IKZF3 in human MOLT-4 cells assessed as induction of IKZF3 degradation at 100 nM measured after 16 hrs by immunoblotting analysis; assay type: cell-based

Activity [1]: Dose-dependent effect | DC50 [1]: 2.5 nM | IC50 (MOLT-4 [2]): 10.1 nM | Activity [3]: 4% | Activity [4]: inactive | IC50 (RS4-11): 41.8 nM | IC50 (NCI-H146): 25.3 nM | Activity [8]: Active | Activity [9]: > 96% | Activity [10]: inactive | Activity [11]: inactive | Activity [12]: inactive | Activity [13]: inactive | Activity [29]: inactive | Activity [30]: inactive | Activity [31]: Active | Activity [32]: Active
SMILES: CN(CCOCCOCCOCCNc1cccc2c1C(=O)N([C@@H]1CCC(=O)NC1=O)C2=O)CC[C@H](CSc1ccccc1)Nc1ccc(S(=O)(=O)NC(=O)c2ccc(N3CCN(CC4=C(c5ccc(Cl)cc5)CCC(C)(C)C4)CC3)cc2)cc1S(=O)(=O)C(F)(F)F
Ratio IC50 (MOLT-4 [5]): 22 | IC50 at 48 h [6]: 1220 nM | Ratio IC50 [7]: 120 | Ratio IC50 [14]: 27 | Activity (MOLT-4 [15]): Dose-dependent effect | Activity (MOLT-4 [16]): Dose-dependent effect | viability at 0.01 µM (MOLT-4 [17]): 21.9% | Activity (MOLT-4 [18]): 58.1% | Activity (MOLT-4 [19]): 18.7% | Activity (MOLT-4 [20]): 1% | viability at 0.1 µM (MOLT-4 [21]): 1.4% | Activity (MOLT-4 [22]): 45.5% | Activity (MOLT-4 [23]): 52.7% | Activity (MOLT-4 [24]): 0.2% | viability at 0.1 µM (MOLT-4 [25]): 23.1% | Activity (MOLT-4 [26]): 18.7% | Activity (MOLT-4 [27]): 56.7% | Activity (MOLT-4 [28]): 1.3%
